Reference: PMC3004370, “PI3Kα Inhibitors That Inhibit Metastasis” (Oncotarget, 2010)

Assays:
CLK2 = biological target: T1, CLK2 (Homo sapiens, UniProt P49760); assay: Millipore KinaseProfiler; assay type: biochemical; conditions: read-out: % of control
T1 construct: purchased Millipore (KinaseProfiler service)
Source text: (§1) Supplement oncotarget-01-339-s001.doc, table 1: Supplementary Table 1. Millipore KinaseProfiler excerpt | column: % of control

EGFR(T790M,L858R) = biological target: T2, EGFR(T790M,L858R) (Homo sapiens, UniProt P00533, L858R/T790M); assay: Millipore KinaseProfiler; assay type: biochemical; conditions: read-out: % of control
T2 construct: purchased Millipore (KinaseProfiler service)
Source text: as §1

EphB1 = biological target: T3, EphB1 (Homo sapiens, UniProt P54762); assay: Millipore KinaseProfiler; assay type: biochemical; conditions: read-out: % of control
T3 construct: purchased Millipore (KinaseProfiler service)
Source text: as §1

Flt3(D835Y) = biological target: T4, Flt3(D835Y) (Homo sapiens, UniProt P36888, D835Y); assay: Millipore KinaseProfiler; assay type: biochemical; conditions: read-out: % of control
T4 construct: purchased Millipore (KinaseProfiler service)
Source text: as §1

Haspin = biological target: T5, Haspin (Homo sapiens, UniProt Q8TF76); assay: Millipore KinaseProfiler; assay type: biochemical; conditions: read-out: % of control
T5 construct: purchased Millipore (KinaseProfiler service)
Source text: as §1

IRAK1 = biological target: T6, IRAK1 (Homo sapiens, UniProt P51617); assay: Millipore KinaseProfiler; assay type: biochemical; conditions: read-out: % of control
T6 construct: purchased Millipore (KinaseProfiler service)
Source text: as §1

MELK = biological target: T7, MELK (Homo sapiens, UniProt Q14680); assay: Millipore KinaseProfiler; assay type: biochemical; conditions: read-out: % of control
T7 construct: purchased Millipore (KinaseProfiler service)
Source text: as §1

NEK2 = biological target: T8, NEK2 (Homo sapiens, UniProt P51955); assay: Millipore KinaseProfiler; assay type: biochemical; conditions: read-out: % of control
T8 construct: purchased Millipore (KinaseProfiler service)
Source text: as §1

Src(1-530) = biological target: T9, Src(1-530) (Homo sapiens, UniProt P12931); assay: Millipore KinaseProfiler; assay type: biochemical; conditions: read-out: % of control
T9 construct: Src(1-530); purchased Millipore (KinaseProfiler service)
Source text: as §1

TrkA = biological target: T10, TrkA (Homo sapiens, UniProt P04629); assay: Millipore KinaseProfiler; assay type: biochemical; conditions: read-out: % of control
T10 construct: purchased Millipore (KinaseProfiler service)
Source text: as §1

[1] = tested on: Intraspleenic-injected HCT116 liver and lung metastases; assay: Intraspleenic tumor model (metastasis); assay type: in vivo, mice; conditions: 150 mg/kg IP daily, three weeks
Method: Intraspleenic-injected HCT116 liver and lung metastases in NOD.Cg-Prkdcscid Il2rgtm1Wjl/SzJ mice (Jackson Laboratory, Bar Harbor, ME, USA) were generated as described in Erikson et. al.. J-series compounds were solubilized in 1:1 DMSO/Cremophor EL (Sigma-Aldrich) and diluted 2.3-fold in water to a final concentration of 7.5 mg/ml. 400 μl of this formulation (150 mg/kg) was injected intraperitoneally (IP) once a day for three weeks, beginning the third day post-surgery. Mice were sacrificed after the treatment and the liver, lungs, and spleen sampled. DNA was extracted from organs with the DNeasy Blood & Tissue Kit (Qiagen). The qPCR assay used for quantification of human DNA in mouse organs has been described. All mouse protocols were designed in accordance with the NIH Guide for the Care and Use of Laboratory Animals and approved by the Institutional Animal Care and Use Committee.

T6 sequence (P51617 whole entry): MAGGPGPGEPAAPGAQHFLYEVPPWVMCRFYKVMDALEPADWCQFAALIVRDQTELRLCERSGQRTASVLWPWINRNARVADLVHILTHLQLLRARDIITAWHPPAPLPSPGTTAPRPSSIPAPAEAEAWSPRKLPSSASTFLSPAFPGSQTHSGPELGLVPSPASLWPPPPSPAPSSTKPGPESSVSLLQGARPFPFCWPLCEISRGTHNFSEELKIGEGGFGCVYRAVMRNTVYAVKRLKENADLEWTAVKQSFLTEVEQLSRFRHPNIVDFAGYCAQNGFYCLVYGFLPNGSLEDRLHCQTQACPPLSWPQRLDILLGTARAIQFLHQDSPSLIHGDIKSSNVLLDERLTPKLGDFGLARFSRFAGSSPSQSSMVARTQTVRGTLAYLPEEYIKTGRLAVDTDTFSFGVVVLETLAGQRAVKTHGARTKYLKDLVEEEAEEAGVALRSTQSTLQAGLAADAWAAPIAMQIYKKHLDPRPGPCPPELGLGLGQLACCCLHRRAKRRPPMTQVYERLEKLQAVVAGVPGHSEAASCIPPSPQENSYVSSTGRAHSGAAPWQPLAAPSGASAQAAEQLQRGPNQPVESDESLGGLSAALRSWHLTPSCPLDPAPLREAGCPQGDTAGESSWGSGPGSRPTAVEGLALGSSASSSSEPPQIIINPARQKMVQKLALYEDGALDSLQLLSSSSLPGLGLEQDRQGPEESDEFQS
T7 sequence (Q14680 whole entry): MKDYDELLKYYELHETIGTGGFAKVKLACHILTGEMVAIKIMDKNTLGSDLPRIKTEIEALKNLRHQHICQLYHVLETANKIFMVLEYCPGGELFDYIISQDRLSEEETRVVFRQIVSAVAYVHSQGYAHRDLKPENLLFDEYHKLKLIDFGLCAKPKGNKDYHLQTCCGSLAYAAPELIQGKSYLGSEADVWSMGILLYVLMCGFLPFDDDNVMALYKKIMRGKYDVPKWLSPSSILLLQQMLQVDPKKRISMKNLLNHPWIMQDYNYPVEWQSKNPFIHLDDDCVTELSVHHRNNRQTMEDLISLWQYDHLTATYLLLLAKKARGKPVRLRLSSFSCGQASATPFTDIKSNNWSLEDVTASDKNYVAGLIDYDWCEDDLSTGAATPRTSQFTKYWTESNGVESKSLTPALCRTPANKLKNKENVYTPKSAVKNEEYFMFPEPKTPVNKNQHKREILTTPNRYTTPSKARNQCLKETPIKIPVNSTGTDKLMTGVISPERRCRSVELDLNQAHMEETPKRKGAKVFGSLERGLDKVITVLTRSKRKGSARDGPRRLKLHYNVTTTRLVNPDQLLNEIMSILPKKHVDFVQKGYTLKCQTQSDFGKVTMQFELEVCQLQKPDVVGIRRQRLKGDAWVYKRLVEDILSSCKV
T3 sequence (P54762 18-984): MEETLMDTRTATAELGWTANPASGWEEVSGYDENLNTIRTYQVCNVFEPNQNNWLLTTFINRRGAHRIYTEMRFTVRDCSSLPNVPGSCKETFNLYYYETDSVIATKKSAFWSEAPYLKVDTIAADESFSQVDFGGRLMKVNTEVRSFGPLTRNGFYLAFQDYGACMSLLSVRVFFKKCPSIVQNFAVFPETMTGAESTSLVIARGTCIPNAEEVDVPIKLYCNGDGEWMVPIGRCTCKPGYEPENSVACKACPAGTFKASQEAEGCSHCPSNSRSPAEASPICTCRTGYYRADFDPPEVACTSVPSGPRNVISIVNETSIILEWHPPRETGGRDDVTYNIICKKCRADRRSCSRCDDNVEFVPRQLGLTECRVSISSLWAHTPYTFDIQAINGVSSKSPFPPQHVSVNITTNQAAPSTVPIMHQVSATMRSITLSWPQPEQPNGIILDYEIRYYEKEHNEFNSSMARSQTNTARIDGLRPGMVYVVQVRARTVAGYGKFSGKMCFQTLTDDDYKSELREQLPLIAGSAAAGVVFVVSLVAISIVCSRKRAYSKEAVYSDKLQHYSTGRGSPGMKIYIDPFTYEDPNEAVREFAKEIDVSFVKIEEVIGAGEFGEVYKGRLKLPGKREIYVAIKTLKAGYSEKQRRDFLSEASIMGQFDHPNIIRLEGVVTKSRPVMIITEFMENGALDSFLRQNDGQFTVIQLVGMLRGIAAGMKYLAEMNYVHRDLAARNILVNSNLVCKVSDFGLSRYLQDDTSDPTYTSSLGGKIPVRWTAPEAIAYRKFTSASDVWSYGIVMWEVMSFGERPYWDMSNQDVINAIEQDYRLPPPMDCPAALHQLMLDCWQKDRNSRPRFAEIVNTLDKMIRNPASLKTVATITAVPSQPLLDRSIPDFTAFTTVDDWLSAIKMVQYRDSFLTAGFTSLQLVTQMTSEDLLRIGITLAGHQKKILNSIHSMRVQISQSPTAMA
T9 sequence (P12931 1-530): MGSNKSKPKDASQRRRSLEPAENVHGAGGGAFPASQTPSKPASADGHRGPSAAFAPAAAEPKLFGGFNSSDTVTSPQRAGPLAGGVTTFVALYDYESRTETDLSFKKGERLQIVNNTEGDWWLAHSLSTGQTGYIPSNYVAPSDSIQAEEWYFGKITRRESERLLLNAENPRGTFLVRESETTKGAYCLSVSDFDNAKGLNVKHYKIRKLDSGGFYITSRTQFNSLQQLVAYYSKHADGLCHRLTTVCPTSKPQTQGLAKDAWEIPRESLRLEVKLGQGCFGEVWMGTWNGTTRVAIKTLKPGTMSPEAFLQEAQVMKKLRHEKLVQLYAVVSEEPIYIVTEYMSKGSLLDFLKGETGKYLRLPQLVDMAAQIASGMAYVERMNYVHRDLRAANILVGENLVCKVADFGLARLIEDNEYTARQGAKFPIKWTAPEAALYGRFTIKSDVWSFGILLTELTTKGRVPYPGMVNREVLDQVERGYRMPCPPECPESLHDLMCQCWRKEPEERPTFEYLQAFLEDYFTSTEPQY
T8 sequence (P51955 whole entry): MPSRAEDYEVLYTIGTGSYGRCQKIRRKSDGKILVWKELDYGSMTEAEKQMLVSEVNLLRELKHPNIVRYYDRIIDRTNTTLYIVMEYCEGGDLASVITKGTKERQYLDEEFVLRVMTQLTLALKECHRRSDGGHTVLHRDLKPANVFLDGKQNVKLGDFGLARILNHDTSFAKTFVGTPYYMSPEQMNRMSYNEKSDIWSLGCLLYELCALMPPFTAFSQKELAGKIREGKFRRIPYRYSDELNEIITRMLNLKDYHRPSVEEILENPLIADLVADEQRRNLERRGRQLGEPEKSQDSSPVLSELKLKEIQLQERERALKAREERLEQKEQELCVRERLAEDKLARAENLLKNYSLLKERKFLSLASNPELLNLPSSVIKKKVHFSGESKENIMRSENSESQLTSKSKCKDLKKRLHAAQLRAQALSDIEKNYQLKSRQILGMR
T2 sequence (P00533 25-1210 T790M/L858R): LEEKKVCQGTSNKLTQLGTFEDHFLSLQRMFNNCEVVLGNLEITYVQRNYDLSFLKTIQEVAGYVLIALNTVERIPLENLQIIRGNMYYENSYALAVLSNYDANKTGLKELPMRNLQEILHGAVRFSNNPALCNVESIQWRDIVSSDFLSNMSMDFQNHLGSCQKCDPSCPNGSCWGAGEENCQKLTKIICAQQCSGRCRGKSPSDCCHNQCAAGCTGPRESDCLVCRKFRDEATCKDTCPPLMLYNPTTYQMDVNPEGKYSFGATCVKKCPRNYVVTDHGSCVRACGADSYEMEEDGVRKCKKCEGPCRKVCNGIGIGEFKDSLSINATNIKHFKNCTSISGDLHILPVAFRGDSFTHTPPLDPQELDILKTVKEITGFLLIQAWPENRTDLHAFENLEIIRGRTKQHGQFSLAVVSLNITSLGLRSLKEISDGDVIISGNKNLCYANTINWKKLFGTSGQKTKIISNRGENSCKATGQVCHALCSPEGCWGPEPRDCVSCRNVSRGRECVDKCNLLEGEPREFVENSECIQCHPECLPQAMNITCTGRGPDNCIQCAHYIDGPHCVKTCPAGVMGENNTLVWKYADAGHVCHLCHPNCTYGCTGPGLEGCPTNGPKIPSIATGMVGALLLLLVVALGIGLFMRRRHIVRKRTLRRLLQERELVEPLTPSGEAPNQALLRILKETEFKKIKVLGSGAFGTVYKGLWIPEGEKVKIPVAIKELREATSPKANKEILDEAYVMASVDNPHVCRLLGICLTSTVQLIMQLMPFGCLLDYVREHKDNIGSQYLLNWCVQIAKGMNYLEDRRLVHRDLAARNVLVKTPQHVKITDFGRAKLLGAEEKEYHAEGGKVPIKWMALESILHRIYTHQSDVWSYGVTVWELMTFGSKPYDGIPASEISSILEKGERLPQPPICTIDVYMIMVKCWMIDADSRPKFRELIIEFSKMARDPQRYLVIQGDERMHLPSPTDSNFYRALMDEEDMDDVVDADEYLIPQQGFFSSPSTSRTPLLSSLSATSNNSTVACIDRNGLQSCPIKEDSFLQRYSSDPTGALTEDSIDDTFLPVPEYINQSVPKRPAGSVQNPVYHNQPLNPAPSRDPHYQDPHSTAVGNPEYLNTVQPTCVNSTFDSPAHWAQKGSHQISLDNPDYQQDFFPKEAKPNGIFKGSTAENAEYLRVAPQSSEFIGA
T1 sequence (P49760 whole entry): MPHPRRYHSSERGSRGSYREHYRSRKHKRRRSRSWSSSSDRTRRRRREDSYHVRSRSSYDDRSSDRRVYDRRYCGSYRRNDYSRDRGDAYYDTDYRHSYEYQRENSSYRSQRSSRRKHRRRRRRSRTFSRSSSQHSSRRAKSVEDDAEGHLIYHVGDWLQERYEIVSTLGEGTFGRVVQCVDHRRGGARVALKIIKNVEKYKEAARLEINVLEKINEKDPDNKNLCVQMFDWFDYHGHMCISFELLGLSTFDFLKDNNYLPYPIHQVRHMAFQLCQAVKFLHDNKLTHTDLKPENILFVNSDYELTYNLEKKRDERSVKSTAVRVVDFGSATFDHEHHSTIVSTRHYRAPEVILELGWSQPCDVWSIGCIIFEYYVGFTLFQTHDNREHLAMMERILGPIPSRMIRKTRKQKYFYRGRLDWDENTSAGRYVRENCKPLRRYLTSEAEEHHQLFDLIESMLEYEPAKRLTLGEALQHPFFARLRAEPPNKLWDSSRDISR

## CCN(/N=C/c1cnc2ccc(Br)cn12)S(=O)(=O)c1cc([N+](=O)[O-])c(NC(=O)C(F)(F)F)cc1C [J124]
CLK2
  remaining activity at 0.011 µM: 5%
EGFR(T790M,L858R)
  remaining activity at 0.011 µM: 46%
EphB1
  remaining activity at 0.011 µM: 46%
Flt3(D835Y)
  remaining activity at 0.011 µM: 3%
Haspin
  remaining activity at 0.011 µM: -1%
IRAK1
  remaining activity at 0.011 µM: 42%
MELK
  remaining activity at 0.011 µM: 23%
NEK2
  remaining activity at 0.011 µM: 42%
Src(1-530)
  remaining activity at 0.011 µM: 48%
TrkA
  remaining activity at 0.011 µM: 11%
[1]
  metastatic lesions in the lungs: no lesions
[1]; compared to vehicle
  metastatic foci in the liver (histopathology): few, if any, metastatic foci
  reduction in primary tumor burden in the spleen (real-time PCR): ~ 50%
  reduction of metastatic liver burden (real-time PCR): 13 fold
